Laboratory results published in patent US20160024051A1, “SALTS AND SOLID FORMS OF ISOQUINOLINONES AND COMPOSITION COMPRISING AND METHODS OF USING THE SAME” (INFINITY PHARMACEUTICALS, INC., priority 2013, published 2016).
Where a name gives a salt, the structure may show the parent alone. Read-outs that look alike come from different tables or passages of the source.

Assays:
[1] = Storage at 25° C./93% RH for 1 week, re-analysis by XRPD/HPLC; type: physicochemical; conditions: 1 week
[2] = Gravimetric vapour sorption (GVS); type: physicochemical
Method in brief: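 Moisture sorption isotherm at 25° C, 0-90% RH in 10% RH steps, 2 scans giving one full cycle, starting from 40% RH. Each step equilibrated 1-4 h until mass within 5% of predicted asymptote; solid re-checked by XRPD afterwards.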

[3] = Polymorphism study: maturation (temperature cycling RT to 50° C.) in solvents, XRPD; type: physicochemical
Protocol: One of 21 solvents was added to each vial in a number of aliquots (up to 30 volumes), with shaking. All the samples were then placed under maturation between RT to 50° C. (4 hours at each temperature) for 3 days. After maturation the samples were analysed by XRPD. Clear solutions were cooled to −20° C. (freezer). If no precipitation occurred samples were evaporated at RT.
Samples were placed under maturation between RT-50° C. (4 hours cycle) for 3 days. After maturation the samples were analyzed by XRPD. Clear solutions were then cooled to −20° C. (freezer). If no precipitation occurred, samples were evaporated at RT.
The corresponding solvents and solvent mixtures were added in portions of (a total of) 5, 10, 20, and 30 volumes at 50° C., with shaking, aiming for clear solutions. After each addition, the vials were allowed to shake for 20 minutes, after which observations were made. Solutions were allowed to evaporate, whereas slurries were set for 8 hour temperature cycling maturation, between RT and 50° C., for 5 days.
The oils obtained by solvent evaporation were used for the maturation screen. Anhydrous solvents (5 volumes; 100 μL) were used in order to minimise the amount of water present. Any solutions were allowed to slowly evaporate, whereas slurries were set for 8 hour temperature cycling maturation, between RT and 50° C. […] These were matured for a further 24 hours before performing XRPD analysis.
The selected solvents and solvent mixtures (5 to 20 volumes) were added with stirring. Any solutions were allowed to slowly evaporate, whereas slurries were set for 8 hour temperature cycling maturation, between RT and 50° C., for 2 days.
Crystals were ground in order to analyse them by XRPD. Suspensions were set for temperature cycling for a total of five days after which time XRPD analysis was carried out.

[4] = Stability of Hydrate Form 2: maturation in water or acetic acid: water 1:3 at constant temperature; type: physicochemical; conditions: 40 hours
Protocol: Both solids obtained from maturation at 25° C.

[5] = 2-Week comparative stability studies; type: physicochemical; conditions: 2 weeks; for change in appearance: 5° C. (closed), ambient (closed), ambient (closed-exposed to light), ambient (open), 60° C. (closed), RT/75% RH (open), 40° C./75% RH (open); for change of water content, as determined by KF: all seven storage conditions
Protocol: (closed); (ii) ambient (closed); (iii) ambient (closed-exposed to light); (iv) ambient (open); (v) 60° C. (closed); (vi) RT/75% RH (open); and (vii) 40° C./75% RH (open).

[6] = Solubility of free base hydrate and salts versus pH (Table 24); type: physicochemical
Dissolution = type: physicochemical
Protocol: The dissolution rate for the hydrate was about 80% in 15 min at pH 1.2 and about 20% in 60 min at pH 2.5. The dissolution rate of the bis-sulfuric acid salt was 100% in 15 min at both pH 1.2 and pH 2.5.

[7] = Solubility assessment using FB Hydrate Form 2; type: physicochemical
Protocol: The best solvent systems (clear solutions) were methanol:anisole 1:1 and DMSO (10 volumes, at RT), dioxane (10 volumes, 50° C.), chloroform (20 volumes, RT). […]

[8] = Thermodynamic aqueous solubility; type: physicochemical; conditions: salts scaled-up at 0.5 gram
[9] = Density and flowability (Hausner ratio, Carr index); type: physicochemical
Source text: The Hausner ratio and the Carr index are correlated to the flowability of a powder or granular material. […] The flowability of both salts are acceptable for manufacturing.

[10] = PK properties in non-clinical animal species (all species); type: in vivo, CD-1 mouse, Wistar rat, Cyno monkey, Beagle dog; conditions: animal pharmacology models and non-clinical toxicology species
Protocol: For example, Compound 1 bis-hydrogen sulfate monohydrate was evaluated in CD-1 mouse, Wistar rat, Cyno monkey, and Beagle dog. Cross species allometric scaling of CL (drug clearance) and Vss (volume at steady state) predicts low CL, high Vss and long T112 for Compound 1 in humans.

[11] = Solubility of bis-sulfuric acid salt Form 1 in solvents at 50° C.; type: physicochemical
Protocol: Bis-Sulfuric acid salt Form 1 of Compound 1 (ca. 35 mg) was weighed into vials. The corresponding solvents and solvent mixtures were added in portions of (a total of) 5, 10, 20, and 30 volumes at 50° C., with shaking, aiming for clear solutions. After each addition, the vials were allowed to shake for 20 minutes, after which observations were made. Solutions were allowed to evaporate, whereas slurries were set for 8 hour temperature cycling maturation, between RT and 50° C., for 5 days.

[12] = Storage at 40° C./75% RH (elevated humidity) for 1 week, re-analysis by XRPD/HPLC; conditions: salt screen solids, 1 week, XRPD pattern or observation
Protocol: The crystalline solids were filtered, dried at ambient conditions, and stored at 40° C./75% RH for 1 week and analyzed by ^1H NMR/IC.
Samples from the screen using amorphous free base Compound 1 were analysed by ^1H-NMR and DSC, and re-analysis by XRPD was also carried out after drying at 50° C./vacuum and storage at 40° C./75% RH (the same sample was dried and stored at elevated humidity).

COc1cc(-c2cccc3cc([C@H](C)Nc4nc(N)ncc4C#N)n(-c4ccccc4)c(=O)c23)ccn1 [Form 2 of the free base of Compound 1]
stability on storage at 25° C./93% RH [1]: stable
stability on storage at 25° C./93% RH ([1]; listed as Free base Form 2): mainly the same pattern with a few differences
GVS: changes in the XRPD after the experiment [2]: very slight changes
GVS: moisture uptake on loading ([2]; between 40-50% RH): 1 % w/w
GVS: moisture content on desorption ([2]; between 90-10% on desorption): 5.7 % w/w
XRPD form after maturation in acetic acid: water 1:1 ([3]; three days, listed as hydrate Form 2 of free base Compound 1): did not show any changes in form
XRPD form after maturation ([4]; acetic acid: water 1:3, 25° C.): unchanged Form 2
XRPD form after maturation ([4]; acetic acid: water 1:3, 90° C.): some evidence of the acetic acid solvate Form 6 mixed with a majority of Form 2
XRPD form after maturation ([4]; pure water, 25° C.): unchanged Form 2
XRPD form after maturation ([4]; pure water, 90° C.): Form 2
change in appearance [5]: No change in appearance
change of water content, as determined by KF [5]: No significant change
Solubility ([6]; 0.1N HCl, 37° C., at saturation): 16000 µg/mL
Solubility ([6]; Simulated Gastric Fluid): 8130 µg/mL
Solubility ([6]; Simulated Intestinal Fluid): 2 µg/mL
Solubility ([6]; citrate buffer, pH 2.5): 0.2-0.3 mg/mL ^
dissolution rate (Dissolution; in 15 min at pH 1.2, listed as hydrate): about 80%
dissolution rate (Dissolution; in 60 min at pH 2.5): about 20%
volumes of solvent giving a clear solution ([7]; 2-methyltetrahydrofuran): 50 volumes
volumes of solvent giving a clear solution ([7]; DCM): 100 volumes
volumes of solvent giving a clear solution ([7]; DCM:methanol 1:1): 100 volumes
volumes of solvent giving a clear solution ([7]; DME): 100 volumes
volumes of solvent giving a clear solution ([7]; DMSO, at RT): 10 volumes
volumes of solvent giving a clear solution ([7]; THF): 100 volumes
volumes of solvent giving a clear solution ([7]; THF:5% water): 50 volumes
volumes of solvent giving a clear solution ([7]; acetonitrile/5% water): 100 volumes
volumes of solvent giving a clear solution ([7]; chloroform, RT): 20 volumes
volumes of solvent giving a clear solution ([7]; dioxane, 50° C.): 10 volumes
volumes of solvent giving a clear solution ([7]; ethanol:anisole): 50 volumes
volumes of solvent giving a clear solution ([7]; methanol): 100 volumes
volumes of solvent giving a clear solution ([7]; methanol:anisole 1:1, at RT): 10 volumes

COc1cc(-c2cccc3cc([C@H](C)Nc4nc(N)ncc4C#N)n(-c4ccccc4)c(=O)c23)ccn1 [bis-sulfuric acid monohydrate salt of (S)-2-amino-4-((1-(8-(2-methoxypyridin-4-yl)-1-oxo-2-phenyl-1,2-dihydroisoquinolin-3-yl)ethyl)amino)pyrimidine-5-carbonitrile]
GVS Single cycle ([2]; hygroscopicity in words, 25° C.): Slightly hygroscopic
Thermodynamic aqueous solubility [8]: > 51 mg/mL
changes on maturation of slurries ([3]; 30 volumes of solvent, RT to 50° C., five days, all solvents other than acetic acid/water, methanol, ethanol/water): did not show any changes
change in appearance [5]: No change in appearance
change of water content, as determined by KF [5]: No significant change
Solubility ([6]; Simulated Gastric Fluid, thermodynamic from solid, read-out: Solubility): > 17000 µg/mL
Solubility ([6]; Simulated Intestinal Fluid, fassgf or other biorelevant, thermodynamic from solid, read-out: Solubility): 40 µg/mL
Solubility ([6]; aqueous buffer, thermodynamic from solid, citrate buffer, pH 2.5, at 37° C., read-out: Solubility): > 12000 µg/mL
Solubility ([6]; aqueous buffer, thermodynamic from solid, citrate buffer, pH 2.5, at RT, read-out: Solubility): > 12000 µg/mL
Solubility ([6]; aqueous buffer, thermodynamic from solid, pH 1.65, 37° C., read-out: Solubility): > 12000 µg/mL
Solubility ([6]; aqueous buffer, thermodynamic from solid, pH 1.65, RT, read-out: Solubility): > 12000 µg/mL
Solubility ([6]; aqueous buffer, thermodynamic from solid, pH 1.9, 37° C., read-out: Solubility): > 12000 µg/mL
Solubility ([6]; aqueous buffer, thermodynamic from solid, pH 1.9, RT, read-out: Solubility): > 12000 µg/mL
Solubility ([6]; aqueous buffer, thermodynamic from solid, pH 2.5, 37° C., read-out: Solubility): > 12000 µg/mL
Solubility ([6]; aqueous buffer, thermodynamic from solid, pH 2.5, RT, read-out: Solubility): > 12000 µg/mL
Solubility ([6]; aqueous buffer, thermodynamic from solid, pH 3.0, 37° C., read-out: Solubility): 3450 µg/mL
Solubility ([6]; aqueous buffer, thermodynamic from solid, pH 3.0, RT, read-out: Solubility): 1580 µg/mL
Solubility ([6]; aqueous buffer, thermodynamic from solid, pH 3.8, 37° C., read-out: Solubility): 280 µg/mL
Solubility ([6]; aqueous buffer, thermodynamic from solid, pH 3.8, RT, read-out: Solubility): 290 µg/mL
Solubility ([6]; simulated gastric fluid, thermodynamic from solid, 0.1N HCl, 37° C., at saturation, read-out: Solubility): > 90000 µg/mL
Solubility ([6]; thermodynamic from solid, Water (pH 1.16), read-out: Solubility): > 60000 µg/mL
solubility compared to the hydrate ([6]; up to pH 3): significantly higher solubility
dissolution rate (Dissolution; in 15 min at pH 1.2, listed as bis-sulfuric acid salt): 100%
dissolution rate (Dissolution; in 15 min at pH 2.5): 100%
flowability compared to the hydrate [9]: improved flowability
oral pharmacokinetics [10]: good oral pharmacokinetics
volumes of solvent giving a clear solution ([11]; acetic acid/water 1:3 at 50° C.): 5 volumes
volumes of solvent giving a clear solution ([11]; methanol at 50° C.): 5 volumes
Storage 40° C./75% RH [12]: salt Pattern 1
